One data set deals with THP-1 human monocytes. Conditions: 24 h.
Description: (§1) The MTT assay is a colorimetric cytotoxicity assay that makes it possible to test cellular proliferation and vitality based on the efficiency of mitochondrial respiration. MTT (3-(4,5-dimethylthiazol-2-yl)-2,5-diphenyl tetrazolium bromide) is a tetrazolium salt that is reduced by the highly reducing environment in the mitochondria of living cells by the action of mitochondrial dehydrogenase. Reduction of MTT causes formation of crystals of formazan that give the characteristic purple coloration to the mitochondria of living cells. […] Thus, although it is a test that evaluates cellular respiration, the MTT assay is considered to be an excellent method for determining cellular vitality.
As preparation for the test, the cells were sown uniformly in 96-well plates at a density of 5×10^4 cells per well and incubated at 37° C., with 5% CO2, and simultaneously, the cells were treated following serial dilutions (1:2) in order to identify the maximum non-cytotoxic concentration for each component.
The treatment was carried out for 24 hours. At the end, after brief washing in PBS, 20 μl of MTT (stock 5 mg/ml) in PBS was added to the THP-1 cells for 2 hours at 37° C. At the end of the incubation time, after removal from the medium and washing in PBS, 100 μl of DMSO was added for solubilization of the formazan crystals. Spectrophotometric reading was performed with a microplate reader (Tecan Sunrise) at a wavelength of 570 nm. The cellular vitality was calculated by measuring the optical density of the concentrations tested relative to the control (untreated cells).
as §1, with “leads to” for “causes”, “impart” for “give”, “regarded as” for “considered to be”
As preparation for the test, the cells were sown uniformly in 96-well plates at a density of 5×10^4 cells per well and incubated at 37° C., with 5% CO2 and at the same time the cells were treated with serial dilutions (1:2) in order to identify the maximum non-cytotoxic concentration for each component.
The treatment was carried out for 24 hours. At the end, after brief washing in PBS, 20 μl of MTT (stock 5 mg/ml) in PBS was added to the THP-1 cells for 2 hours at 37° C. At the end of the incubation time, after removal from the medium and washing in PBS, 100 μl of DMSO was added to dissolve the formazan crystals. Spectrophotometric reading was performed with a microplate reader (Tecan Sunrise) at a wavelength of 570 nm. The cellular vitality was calculated by measuring the optical density of the concentrations tested relative to the control (untreated cells).

Data set [1] concerns ROS produced by the THP-1 cells. The data set can be described thus: ROS assay (H2DCF-DA, flow cytometry), Example 2. It counts as cell-based, human. Conditions: 24 h treatment then H2O2 100 μM 2 h; concentrations indicated in Table 7. As for the experimental part: The antioxidant activity of the individual components and synergy between them was evaluated as efficiency of neutralization of the ROS produced by the THP-1 cells after application of an oxidizing agent: hydrogen peroxide (H2O2) at a concentration of 100 μM. The ROS were measured by the method described in Boulton S., Anderson A., Swalwell J., et al., 2011 Implications of using the fluorescent probes, dihydrorhodamine 123 and 2′,7′-dichlorodihydrofluorescein diacetate, for the detection of UV-A induced reactive oxygen species. […] The DCF produced is then quantified by reading with a flow cytometer and is proportional to the quantity of ROS present in the sample under examination. […]
After removal of the H2DCF-DA solution, the cells were washed, collected and the fluorescence of the DCF was measured by analysis with a Coulter Epics XL flow cytofluorimeter. At least ten thousand cells were analysed for each sample and the mean fluorescence intensity was quantified by the XL2 software of the instrument.
The parameter considered is MFI, mean fluorescence intensity, i.e. the geometric mean of the fluorescence intensity of the cells in which H2DCF-DA has been transformed into the fluorescein-treated DCF form, which is proportional to the amount of ROS per sample. […]
For orientation: A flow cytometer gives signals particle by particle.

Data set [2] has as its system IL-1β. The data set can be described thus: ELISA of IL-1β after LPS, Example 3. Format: cell-based, human. As for the experimental part:
(§2) Possible anti-inflammatory activity of the individual components and synergy between them in THP-1 cells was evaluated after 24 hours of treatment and stimulation with a known pro-inflammatory agent (LPS), measuring expression of IL-1β and TNFα using an ELISA kit (Thermo Fisher Scientific, Inc.).
(§3) As preparation for the test, the THP-1 cells were sown uniformly in a 96-well plate at a density of 5×10^4 cells/well and treated with the maximum concentrations found to be non-cytotoxic in the MTT assay; untreated cells were used as negative control. Treatment was carried out at 37° C. at 5% CO2 for 20 h; then the sample was stimulated with LPS (component of the bacterial outer membrane, considered to be an inflammatory agent) for 4 hours.
(§4) At the end of the treatment, the supernatants were collected and used for coating a pretreated ELISA plate, supplied with the kit.
(§5) For analysis of the expression of both markers under examination (IL-1β and TNFα), a special kit is used that is based on the “sandwich” ELISA system in which a 96-well plate is coated with a monoclonal antibody specific to the particular cytokine.
The standards, prepared on the basis of the instructions in the protocol and used for constructing the calibration curve, and the samples are added to the wells and the cytokine of interest binds the capture antibody immobilized on the bottom of the well. Next, the biotinylated anti-cytokine antibody is added to the wells so that the biotinylated antibody-antigen-antibody “sandwich” is formed. […] Addition of a solution of sulphuric acid turns the colour of the solution from blue to yellow, blocking the reaction and allowing accurate reading of the absorbance of the samples at 450 nm.
The absorbance was then read at 450 and 550 nm using a microplate reader (Tecan Sunrise). The values obtained from the reading at 550 nm were subtracted from those at 450 nm to correct the optical imperfections of the microplate. […]

For data set [3], the system named is TNFα. The experiment in a line: ELISA of TNFα after LPS, Example 3. Format: cell-based, human. On the procedure: as §2, §3, §4, §5
The standards, prepared on the basis of the instructions in the protocol and used for constructing the calibration curve, and the samples are added to the wells and the cytokine of interest binds the capture antibody immobilized on the bottom of the well. […] Addition of a solution of sulphuric acid turns the colour of the solution from blue to yellow, blocking the reaction and allowing accurate reading of the absorbance of the samples at 450 nm.
The absorbance was then read at 450 and 550 nm using a microplate reader (Tecan Sunrise). The values obtained from the reading at 550 nm were subtracted from those at 450 nm to correct the optical imperfections of the microplate.
The possible anti-inflammatory action of the individual components of Xinepa and the possible synergy were evaluated by measuring the levels of TNFα following stimulation with LPS. […]

Data set [4] can be described thus: Solubility / dissolution of Xinepa and its ingredients.
The subject of a further data set is THP-1 cell line. Particulars: curcumin (Sigma, commercial); Hsu et al. 2008; cited from earlier work.
Another data set deals with THP-1 cells. The experiment in a line: MTT assay (Assay 0), cellular vitality. Format: cell-based, human. Conditions: positive controls at 100 μM. On the procedure:
The cells were kept in an incubator at 37° C. and 5% CO2 and sown every 3-4 days at a density of about 5×10^5 cells/ml.
This colorimetric assay is based on the transformation of tetrazolium salt MTT (yellow) to formazan (violet), by the reductase succinate-tetrazolium system, which belongs to the respiratory chain of the mitochondria and is only active in metabolically active cells. Briefly, the cells grown in a 96-well plate were incubated with the solution of MTT for 4 hours. […] The absorbance measured correlates directly with the number of live cells.
To exclude a possible toxic effect attributable to the incubation protocol selected, cellular vitality was quantified by the MTT assay.
In general terms: Tetrazolium dyes change colour on reduction, which living cells bring about.

The subject of data set [5] is TNFα. The experiment in a line: ELISA assay (Assay 1a), release of TNFα. It counts as cell-based, human. Conditions: positive controls; LPS 1 μg/ml 2 h. A general note: ELISA stands for enzyme-linked immunosorbent assay.
For data set [6], the system named is IL-1β. The experiment in a line: ELISA assay (Assay 1a), release of IL-1β. It counts as cell-based, human. Particulars: positive controls; LPS 1 μg/ml 2 h.
Data set [7] concerns reactive oxygen species (ROS) in THP-1 cells. The experiment in a line: Intracellular levels of ROS (Assay 2), CellROX Deep Red. Conditions: positive control; 100 mM H2O2 2 h; not significantly different from its vehicle control. Format: cell-based, human. On the procedure: The operating principle of the probe is based on the fact that it is not fluorescent in the reduced state, whereas following oxidation it develops a fluorescent signal with excitation peak at 640 nm and emission peak at 665 nm. Briefly, at the end of the period of stimulation with H2O2, the cells were incubated with CellROX® Deep Red Reagent at a final concentration of 5 μM in the medium at 37° C. for 30 min. The nuclei were labelled with Hoechst33342 and the fluorescences of both channels (CellROX® Deep Red and DAPI) were read on the GloMax plate fluorometer (Promega Italy). The fluorescence signals relating to the ROS were normalized for the signal of Hoechst33342 to cancel the variability in the fluorescence signal read due to the number of cells present in each well.
The same plates were then also acquired in the confocal microscope for the purpose of obtaining representative images relating to quantifications of the various treatments.

Setting [8] is: 24-hour treatment and stimulation with LPS.
Setting [9] is: relative to stimulated untreated cells (Ctrl + LPS = 100).

Consider seven compounds from patent publication US9980940B2, “Composition for the treatment of neuropathies and/or neuropathic pain” (Kolinpharma S.p.A., priority 2014, dated 2018).

“Also recorded” adds a separate entry of the source. Read-outs that look alike come from different tables or passages of the source.

Regarding `CC(=O)O[C@H](CC(=O)[O-])C[N+](C)(C)C` [Component C], the “Cellular vitality (%)” value stood at 102.221% in the data set on THP-1 human monocytes (N-Acetyl-L-carnitine 0.25 mg/ml); 97.615% in the data set with THP-1 human monocytes (N-Acetyl-L-carnitine 0.5 mg/ml); 90.355% in the data set on THP-1 human monocytes (N-Acetyl-L-carnitine 1 mg/ml); 91.422% with THP-1 human monocytes (N-Acetyl-L-carnitine 2 mg/ml); 60.848% with THP-1 human monocytes (N-Acetyl-L-carnitine 4 mg/ml). The “Maximum non-cytotoxic concentration” value with THP-1 human monocytes (components A, B, C tested individually (lipoic acid, vitamin C, vitamin E acetate together as component B), mortality not greater than 30%) was determined as 2 mg/mL. Also, in the data set with THP-1 human monocytes (each component when tested together (A + B + C)), the “Non-cytotoxic concentration” value stood at 0.01 mg/mL. The “levels of ROS” value in [1] is on record as “comparable to those of the positive control”. Further, the “levels of IL-1β vs stimulated control” value in the data set with IL-1β [2] (setting [8]) is on record as “increase”. Further, in the data set on IL-1β [2] (24 h treatment at non-cytotoxic concentrations incl. LPS 4 h, Ctrl + LPS 4.84), the “IL-1β” value came out at 4.98 pg/mL. Also, the “IL-1β (%)” value with IL-1β [2] (setting [9]) was determined as 102.91%. Besides, the “levels of TNFα vs stimulated control” value in the data set on TNFα [3] (setting [8]) is given as “levels lower than the stimulated control”. Moreover, in the data set with TNFα [3] (24 h treatment at non-cytotoxic concentrations, LPS 4 h, Ctrl + LPS 424.12), the “TNFα” value was found to be 386.98 pg/mL. Also, the “TNFα (%)” value in the data set on TNFα [3] (setting [9]) is reported as 91.24%. The “dissolution in complete medium” value in [4] (RPMI medium with 10% FBS, L-glutamine 2 mM and antibiotics) was “did not cause problems in dissolution; also recorded: did not cause problems of dissolution”.

In the case of `O=C(O)CCCCC1CCSS1` (stereo not drawn) [Lipoic acid, Alpha-lipoic acid], the “Maximum non-cytotoxic concentration” value in the data set with THP-1 human monocytes (human) worked out at 0.3750 mg/mL.

Consider `COc1cc(/C=C/C(=O)CC(=O)/C=C/c2ccc(O)c(OC)c2)ccc1O` [curcumin, (1E,6E)-1,7-bis(4-hydroxy-3-methoxyphenyl)-hepta-1,6-diene-3,5-dione], for which the “non-cytotoxic concentration found for curcumin” value in the data set on THP-1 cell line was 10 µM.

Turning to `CC(C)Cc1ccc(C(C)C(=O)O)cc1` (stereo not shown) [ibuprofen], the “toxicity on the cells (MTT)” value in the data set with THP-1 cells is “did not identify any effect of toxicity”. The “release of TNFα relative to control” value with TNFα [5] is listed as “did not cause any reduction”. Further, the “release of IL-1β relative to control” value in the data set with IL-1β [6] is given as “did not have any effect”.

Take `CS(=O)(=O)Nc1ccc([N+](=O)[O-])cc1Oc1ccccc1` [nimesulide]: the “toxicity on the cells (MTT)” value with THP-1 cells was “did not identify any effect of toxicity”. Besides, the “release of TNFα relative to control” value in the data set with TNFα [5] was “showed anti-inflammatory action”. Further, in the data set on IL-1β [6], the “release of IL-1β relative to control” value is reported as “effective in reducing the release of IL-1β”.

Turning to `Cc1cc2nc3c(=O)[nH]c(=O)nc-3n(C[C@H](O)[C@H](O)[C@H](O)CO)c2cc1C` [vitamin B2, riboflavin], in data set [4] (water vs alcohols or organic solvents), the “solubility of individual ingredients” value is on record as “soluble in water but not in alcohols”.

Turning to tocopherol [vitamin E], in [7], the “antioxidant action (ROS levels)” value is “partial antioxidant action”.
